Tests used:
Assay type in all cases: biochemical
Details in all cases: 5 μM probe, 12 hours at 37° C.
HDAC1 = biological target: T1, HDAC1 (Homo sapiens, UniProt Q13547); assay: LCMS characterization of enzymatic deacetylation by HDAC1
T1 construct: purchased Cayman Chemicals
Experimental: (§1) The enzymatic cleavage of HP-1 and HP-2 was analyzed by performing LCMS assays with HeLa nuclear extract (AnaSpec), HeLa whole cell lysate (Santa Cruz Inc.), and the following purified HDAC isoforms: 1, 2, 3, 6 and 8 (HDAC1, 3 and 8 from Cayman Chemicals and HDAC2 and 6 provided by Dr. Stephen Haggarty). Solutions containing (i) vehicle with DMSO in HDAC buffer, (ii) 5 μM probe in HDAC buffer, (iii) 5 μM probe and HDAC enzyme/HeLa nuclear extract/HeLa whole cell lysate in HDAC buffer, or (iv) 5 μM probe and HDAC enzyme/HeLa nuclear extract/HeLa whole cell lysate pre-incubated with 10 μM SAHA (Provided by Dr. Stephen Haggarty) in HDAC buffer were incubated for 12 hours at 37° C. Following incubation, a 20 μL aliquot of supernatant from each sample was analyzed by LCMS. […] For HP-1, the (M+H)^+ ion for the corresponding aldehyde (8, DHP-1) was detected, which formed following reaction of the initial imine deacetylation product with water. […] The peak area for each detected compound was measured to determine the % deacetylation of each probe. All assay samples were analyzed in triplicate. […]
(§2) LCMS characterization of HDAC enzymatic action on HP-1 and HP-2. […] Following incubation, an aliquot of supernatant from each sample was analyzed by LCMS. […] The peak area for each detected compound was measured to determine the % deacetylation of each probe (full experimental details in Example 1).

HDAC2 = HDAC2 (Homo sapiens, UniProt Q92769); assay: LCMS characterization of enzymatic deacetylation by HDAC2
Experimental: as §1, §2

HDAC6 = biological target: T2, HDAC6 (Homo sapiens, UniProt Q9UBN7); assay: LCMS characterization of enzymatic deacetylation by HDAC6
T2 sequence (Q9UBN7 1-1215): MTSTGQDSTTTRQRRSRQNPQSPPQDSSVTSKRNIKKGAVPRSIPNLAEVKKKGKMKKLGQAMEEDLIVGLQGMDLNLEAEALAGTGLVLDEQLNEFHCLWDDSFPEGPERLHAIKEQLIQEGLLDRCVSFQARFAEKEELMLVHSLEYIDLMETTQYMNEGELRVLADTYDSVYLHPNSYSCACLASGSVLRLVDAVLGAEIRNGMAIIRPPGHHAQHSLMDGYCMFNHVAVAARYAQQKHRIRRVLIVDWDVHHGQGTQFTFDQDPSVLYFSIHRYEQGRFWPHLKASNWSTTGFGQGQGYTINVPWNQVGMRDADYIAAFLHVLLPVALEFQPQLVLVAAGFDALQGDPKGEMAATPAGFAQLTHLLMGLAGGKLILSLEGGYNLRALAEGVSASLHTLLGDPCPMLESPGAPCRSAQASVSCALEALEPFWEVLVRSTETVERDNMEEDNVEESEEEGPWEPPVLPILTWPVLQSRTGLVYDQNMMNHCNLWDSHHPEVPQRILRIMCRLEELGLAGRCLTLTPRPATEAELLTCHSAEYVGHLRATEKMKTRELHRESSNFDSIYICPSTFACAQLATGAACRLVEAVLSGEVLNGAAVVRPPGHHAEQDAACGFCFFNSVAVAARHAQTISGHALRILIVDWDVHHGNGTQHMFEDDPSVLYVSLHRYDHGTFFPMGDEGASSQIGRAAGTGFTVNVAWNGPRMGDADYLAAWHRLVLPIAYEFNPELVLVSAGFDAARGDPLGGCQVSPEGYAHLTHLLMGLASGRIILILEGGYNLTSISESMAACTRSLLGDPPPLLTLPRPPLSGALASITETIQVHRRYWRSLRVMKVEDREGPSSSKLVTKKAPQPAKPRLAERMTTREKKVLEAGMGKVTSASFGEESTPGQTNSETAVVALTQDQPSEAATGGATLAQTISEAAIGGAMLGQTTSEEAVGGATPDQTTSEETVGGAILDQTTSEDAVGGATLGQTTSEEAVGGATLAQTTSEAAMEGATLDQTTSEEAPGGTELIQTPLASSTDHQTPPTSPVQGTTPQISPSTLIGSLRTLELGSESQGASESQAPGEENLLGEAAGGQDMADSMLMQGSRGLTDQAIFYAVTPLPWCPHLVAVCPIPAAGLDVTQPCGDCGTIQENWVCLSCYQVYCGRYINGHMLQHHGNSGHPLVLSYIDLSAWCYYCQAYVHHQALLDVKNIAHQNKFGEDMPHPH
Experimental: as §1, §2

Measured: % HP-1 to DHP-1

T1 sequence (Q13547 whole entry): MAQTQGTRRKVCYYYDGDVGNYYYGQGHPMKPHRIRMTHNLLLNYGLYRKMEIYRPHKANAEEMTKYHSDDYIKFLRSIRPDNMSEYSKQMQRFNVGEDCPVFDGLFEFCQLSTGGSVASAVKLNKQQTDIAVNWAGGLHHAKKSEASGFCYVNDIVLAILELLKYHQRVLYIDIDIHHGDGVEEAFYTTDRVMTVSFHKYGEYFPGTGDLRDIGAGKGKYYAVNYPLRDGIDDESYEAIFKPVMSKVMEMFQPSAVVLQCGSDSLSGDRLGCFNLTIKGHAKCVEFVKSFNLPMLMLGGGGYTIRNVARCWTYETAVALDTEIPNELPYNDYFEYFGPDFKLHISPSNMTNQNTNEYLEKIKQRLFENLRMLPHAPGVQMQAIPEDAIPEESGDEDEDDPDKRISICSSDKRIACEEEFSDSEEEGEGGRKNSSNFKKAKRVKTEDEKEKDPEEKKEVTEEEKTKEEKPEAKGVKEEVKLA
Chain of HDAC2 (Q92769 whole entry, species assumed): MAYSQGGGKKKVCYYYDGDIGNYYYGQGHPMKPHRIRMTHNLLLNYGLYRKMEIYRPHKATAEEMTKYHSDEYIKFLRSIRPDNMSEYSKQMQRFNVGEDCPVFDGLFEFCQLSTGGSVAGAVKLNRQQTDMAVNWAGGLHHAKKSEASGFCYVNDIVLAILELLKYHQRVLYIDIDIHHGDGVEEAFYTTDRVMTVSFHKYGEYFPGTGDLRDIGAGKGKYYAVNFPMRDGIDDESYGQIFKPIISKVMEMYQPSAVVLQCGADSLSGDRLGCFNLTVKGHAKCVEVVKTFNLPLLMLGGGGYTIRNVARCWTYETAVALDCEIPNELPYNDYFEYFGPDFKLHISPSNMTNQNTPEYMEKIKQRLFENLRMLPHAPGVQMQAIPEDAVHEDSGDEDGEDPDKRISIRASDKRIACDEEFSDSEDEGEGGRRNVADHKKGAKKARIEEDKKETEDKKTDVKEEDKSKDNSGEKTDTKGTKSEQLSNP

CC(=O)NC=CCCCCNC(=O)CCCCCNc1ccc([N+](=O)[O-])c2nonc12 [HP-1]
0%: HDAC1; HDAC1, +SAHA (10 μM pre-incubated) | HDAC2; HDAC2, +SAHA (10 μM) | HDAC2; HDAC2, −SAHA | HDAC6; HDAC6, +SAHA (10 μM) | HDAC6; HDAC6, −SAHA
15%: HDAC1; HDAC1, −SAHA, maximum detected conversion, 1.5:1 trans:cis mixture

Source: US20160138077A1, “MONITORING AND ASSESSING DEACETYLASE ENZYME ACTIVITY” (THE GENERAL HOSPITAL CORPORATION, priority 2013, published 2016)
